From patent publication EP1001761B1, “USE OF CHOL[…] TREATING ATTENTION DEFICIT DISORDERS” (priority 1997, dated 1999)
Counter-ions that a name gives are not always drawn.

How the values were obtained:
[1] = tested on: patients with ADD; test: treatment of two ADD patients, measured by ANT (Amsterdam Neuropsychological Tests), reaction times for different tasks; type: in vivo; settings: for After: mean / After: miss (Missed task) / After: Fa (Failed attempt): after treatment
Text: The protocol in this case is first a baseline testing before medication and retesting after 2 days on medication and then after a week repeated testing. Ecological scales were also used before and are now being evaluated after one week after two weeks etc. for a treatment of one month duration.

[2] = solubility in water; type: physicochemical; settings: room temperature
Experimental: Galantamine and its acid addition salts form crystals. […] If necessary, pharmaceutically-acceptable suspension aids may be employed. Typically, such a suspension will be employed at a concentration of 0.1-50 mg/ml, such as 1-50 mg/ml, more commonly 5-40 mg/ml, for example, 5-30 mg/ml or 10-40 mg/ml, such as 10-30 mg/ml, especially 20-30 mg/ml of galantamine.

Structure (SMILES) | improvement in attention (reduction in time to complete certain tasks and with fewer errors), normalized data, error analysis ([1]; two patients, 2.5 mg 3 times a day) | solubility in water [2] | After: mean ([1]; Patient A, task Baseline) [ms] | After: mean ([1]; Patient A, task Focused Att.) [ms] | After: miss (Missed task) ([1]; Patient A, task Focused Att.) | After: Fa (Failed attempt) ([1]; Patient A, task GoNoGo) | After: mean ([1]; Patient A, task GoNoGo) [ms] | After: miss (Missed task) ([1]; Patient A, task GoNoGo) | After: Fa (Failed attempt) ([1]; Patient A, task Sustained Att.) | After: mean ([1]; Patient A, task Sustained Att.) [ms] | After: miss (Missed task) ([1]; Patient A, task Sustained Att.) | After: mean ([1]; Patient B, task Baseline) [ms] | After: mean ([1]; Patient B, task Focused Att.) [ms] | After: miss (Missed task) ([1]; Patient B, task Focused Att.) | After: Fa (Failed attempt) ([1]; Patient B, task GoNoGo) | After: mean ([1]; Patient B, task GoNoGo) [ms] | After: miss (Missed task) ([1]; Patient B, task GoNoGo) | After: Fa (Failed attempt) ([1]; Patient B, task Sustained Att.) | After: mean ([1]; Patient B, task Sustained Att.) [ms] | After: miss (Missed task) ([1]; Patient B, task Sustained Att.)
COc1ccc2c3c1O[C@H]1C[C@@H](O)C=C[C@@]31CCN(C)C2 [galantamine hydrobromide] | over 2.5 standard deviations | – | – | – | – | – | – | – | – | – | – | – | – | – | – | – | – | – | – | –
COc1ccc2c3c1O[C@H]1C[C@@H](O)C=C[C@@]31CCN(C)C2 [galantamine] | – | only sparingly soluble | 727 | 1352 | 0 | 2 | 655 | 1 | 6 | 1222 | 4 | 780 | 1166 | 3 | 3 | 766 | 3 | 50 | 1152 | 20
